Test results reported in patent US4008267A, “3,3'-Di(sulfonyloxy-group-containing)substituted benzidine derivatives” (AB Kabi, priority 1974, dated 1977).
In brackets after ≈: the same amount, converted by molar mass.

Key:
[1] = Stability of isolated product in air; type: physicochemical; conditions: greyish crystal powder
Description: d. 10 gm. of this 8,8'-bis(2-oxo-1,2,3,4,5,6-hexahydro-1-benzazocine) are refluxed for 12 hours with 200 ml. of concentrated hydrochloric acid. The solution is evaporated to a small volume, diluted with water, following which the pH is adjusted to 5 to 6 by adding concentrated sodium acetate solution.

[2] = Absorption wave length of the oxidized chromogen; type: physicochemical
[3] = Solubility of the chromogens in water / at pH 7, reduced and oxidized state; conditions: for solubility: pH 7, water
[4] = Light stability: extinction decrease after irradiation of the oxidized chromogen; type: physicochemical
Description: In connection with this composition portion of the invention, laboratory tests were conducted by a standard method for evaluating different chromogens.

[5] = Color stability at extinction maximum; type: physicochemical; conditions: 0.2 mM chromogen; 4 hours the longest period observed
[6] = Color development of chromogen-reactive-indicator composition with glucose stock solutions (glucose oxidase/peroxidase); conditions: 0.2 mM chromogen in reagent composition
Description: Glucose was used as the control or test substance to be tested for in these tests.
______________________________________
Chromogen used 0.2 mM (i.e. millimolar),
glucose oxidase 3000 units,
Stock or test solutions were prepared containing glucose in concentrations of 25, 50, 100, 200, 300, and 400 mg. per 100 ml.
Before the final determination, this thus diluted solution is diluted further 1 part to 11 with the just described chromogen reagent solution. Thereafter the development of color is measured at 450 mm.
When this particular dilution pattern is applied to the foregoing stock or test stem solutions, finally diluted solutions with the following respective glucose contents are obtained: 2.2, 4.3, 8.6, 13.0, and 17.3 mg. per liter.

[7] = background, cited from earlier work
[8] = background, cited from earlier work; remark: listed apart in the source
[9] = Solubility at pH 7, oxidized (colored), pH 7, oxidized state
[10] = Solubility at pH 7, reduced (uncolored), pH 7, reduced state
[11] = 450 nm (o-tolidine 430 nm), pH value 6.5

## Nc1ccc(-c2ccc(N)c(CCCCC(=O)O)c2)cc1CCCCC(=O)O [Example 6, Delta,delta'-(4,4'-diamino-3,3'-biphenyl)divaleric acid]
[1]
  Discoloration in the air: readily discolors in the air

## Cl.Cl.Nc1ccc(-c2ccc(N)c(OCCCC(=O)O)c2)cc1OCCCC(=O)O [Example 1(d), Gamma, gamma'-(4,4'-diamino-3,3'-biphenyldioxy)dibutyric acid dihydrochloride]
[2]; pH value 6.5
  Wave length range in nm: 450 nm
[3]
  Solubility in water (in words): very good
[3]; [9]
  solubility: 700 µg/mL
[3]; [10]
  solubility: 70000 µg/mL
[4]; [11]
  Extinction decrease % after irradiation 5 min. under 10 Watt tungsten lamp: 2%
[5]
  Color stability at extinction maximum, optional reading time: up to 4 hours
[6]
  Precipitation of chromogen: no precipitation of chromogen occurred

## Cc1cc(-c2ccc(N)c(C)c2)ccc1N [o-tolidine]
[2]; pH value 4.5
  Wave length range in nm: 630 nm
[2]; pH value 6.5
  Wave length range in nm: 430 nm
[7]
  Light absorption wave length in oxidized state: about 450 nm
[7]; temporarily appearing color
  Absorption of temporarily appearing color: about 630 nm
[3]; [9]
  solubility: 7 µg/mL (≈ 33 µM)
[3]; [10]
  solubility: 130 µg/mL (≈ 612 µM)
[4]; [11]
  Extinction decrease % after irradiation 5 min. under 10 Watt tungsten lamp: 1%
[4]; 630 nm, pH value 4.5
  Extinction decrease % after irradiation 5 min. under 10 Watt tungsten lamp: unstable
[8]; temporarily appearing color at about 630 nm
  Sensitivity of color to pH and temperature: very sensitive to variations in pH and temperature

## Nc1ccc(-c2ccc(N)c(OCCCS(=O)(=O)O)c2)cc1OCCCS(=O)(=O)O [Example 3(b), Gamma,gamma'-(4,4'-diamino-3,3'-biphenyldioxy)dipropane sulfonic acid]
[2]; pH value 6.5
  Wave length range in nm: 450 nm
[3]
  Solubility in water (in words): quite good
[3]; [9]
  solubility: 120 µg/mL (≈ 261 µM)
[3]; [10]
  solubility: 12000 µg/mL (≈ 26100 µM)
[4]; [11]
  Extinction decrease % after irradiation 5 min. under 10 Watt tungsten lamp: 2%
[5]
  Color stability at extinction maximum, optional reading time: up to 4 hours
[6]
  Precipitation of chromogen: no precipitation of it occurs

## COc1cc(-c2ccc(N)c(OC)c2)ccc1N [o-dianisidine]
[2]; pH value 6.5
  Wave length range in nm: 450 nm
[7]
  Light absorption wave length in oxidized state: about 450 nm
[3]; [9]
  solubility: 10 µg/mL (≈ 40.9 µM)
[3]; [10]
  solubility: 110 µg/mL (≈ 450 µM)
[4]; [11]
  Extinction decrease % after irradiation 5 min. under 10 Watt tungsten lamp: 26%
[8]; oxidized, exposed to light
  Decline of extinction when exposed to light: up to 25 per cent
[8]; oxidized
  Sensitivity of color to light: sensitive to light
